How the values were obtained:
MCF7 = assay: Antiproliferative activity against human MCF7 cells assessed as growth inhibition after 48 hrs by SRB assay; conditions: MCF7, 48 h
A549 = assay: Antiproliferative activity against human A549 cells assessed as growth inhibition after 48 hrs by SRB assay; conditions: A549, 48 h
DU-145 = assay: Antiproliferative activity against human DU145 cells assessed as growth inhibition after 48 hrs by SRB assay; conditions: DU-145, 48 h

GI50 (MCF7) [µM] | GI50 (A549) [µM] | GI50 (DU-145) [µM] | SMILES
28.8 | > 100 | 16.6 | COc1ccc(Nc2ncccc2C(=O)Nc2cccnc2Nc2ccc(Cl)cc2)cc1
> 100 | > 100 | 4.1 | O=C(Nc1cccnc1Nc1ccc(Cl)cc1)c1cccnc1Nc1ccc(F)cc1
> 100 | > 100 | 8.1 | COc1ccc(Nc2ncccc2C(=O)Nc2cccnc2Nc2ccccc2)cc1
10.5 | 3.9 | 3.1 | O=C(Nc1cccnc1Nc1ccc(Cl)cc1)c1cccnc1Nc1cc(C(F)(F)F)cc(C(F)(F)F)c1
16 | 15.2 | 8.4 | O=C(Nc1cccnc1Nc1ccc(F)cc1)c1cccnc1Nc1ccc(F)cc1
> 100 | > 100 | 7 | COc1cc(Nc2ncccc2C(=O)Nc2cccnc2Nc2ccc(F)cc2)cc(OC)c1OC
> 100 | 6 | > 100 | COc1cc(Nc2ncccc2C(=O)Nc2cccnc2Nc2ccccc2)cc(OC)c1OC
> 100 | > 100 | 10.5 | COc1cc(Nc2ncccc2C(=O)Nc2cccnc2Nc2ccc(Cl)cc2)cc(OC)c1OC
> 100 | > 100 | 9.8 | COc1ccc(Nc2ncccc2NC(=O)c2cccnc2Nc2cc(C(F)(F)F)cc(C(F)(F)F)c2)cc1

Source: ChEMBL document CHEMBL3351230, “Synthesis of 2-anilinopyridine dimers as microtubule targeting and apoptosis inducing agents” (Bioorg Med Chem, 2014)
